Data set [1] in a line: Optical properties and NIR-II quantum yield in 5% BSA saline. It is filed as physicochemical. The protocol: Fluorescence Quantum yield measurement and physicochemical properties: The absorption and emission spectra of fluorophores were measured in 5% BSA saline using UV/Vis/NIR spectrometers (USB2000+VIS+NIR+ES and Flame-NIR, Ocean Insight, Dunedin, FL). Fluorescence emission spectra were collected by NIR excitation with an 808-nm laser. To calculate NIR-II fluorescence quantum yield, the following equation was used:
[formula] • where QYsample is the QY of SH1, QYref is the QY of ICG in 30% FBS supplemented with 50 mM HEPES, nsample and nref are the refractive indices of SH1 and ICG solutions which are both water (1.33) in this case. In silico calculations of molecular weight, the distribution coefficient (LogD at pH 7.4), surface molecular charge, polarizability, and 3D molecular surface area were performed using MarvinSketch (ChemAxon, Budapest, Hungary).

Data set [2] is described as follows: In vivo biodistribution and pharmacokinetics in CD-1 mice. Further details: species or system mouse. An excerpt: In vivo biodistribution and pharmacokinetics of SH dyes: Animals were housed in an AAALAC-certified facility and were studied under the supervision of MGH IACUC in accordance with the approved institutional protocol. Six-week-old CD-1 mice (male; 25-30 g) were purchased from Charles River Laboratories (Wilmington, MA). Mice were maintained under anesthesia with isoflurane and oxygen during the preparation prior to injection. The end of the tail was cut for blood collection. Before injection, blood was sampled in capillary tubes (Fisher Scientific, Pittsburgh, PA) as a reference. […] Mice were imaged using the in-house built NIR-II imaging system. After 24 h post-injection, mice were sacrificed to image organs. At least 3 mice were analyzed for each sample. Results were presented as an exponential decay curve using Prism software version 9.0.2 (GraphPad, San Diego, CA).

Data set [3] is described as follows: Photostability under xenon lamp irradiation. It is filed as physicochemical. To be noted: 2 h. The protocol:
Optical Study, Photostability, Physicochemical Properties, and DFT Calculation: 1 mM stock solution in DMSO of the synthesized fluorophores was prepared before starting any spectral measurement. Optical properties for the synthesized fluorophores were measured in four different solvents (EtOH, DMSO, HEPES, and PBS). Absorbance spectra were measured in a Varian Cary 50 absorbance spectrophotometer (190-1100 nm). Fluorescence emission and photostability were measured and emission spectra were recorded on a Shimadzu RF-5301PC spectrofluorometer. Physicochemical properties (Log D, molecular mass, TPSA, H bond D/A, polarizability, molecular volume, and rotatable bonds) were predicted by ChemAxon (JChem plugin). Theoretical calculations of frontier molecular orbitals (FMOs) for the optimized structures of selected fluorophores were calculated based on DFT calculations at the B3LYP/6-311G(d,p) level.
In consideration of theranostic (therapeutics and diagnostic) applications, NIR cyanine fluorophores are synthesized for fluorescence imaging, photodynamic therapy (PDT), photothermal therapy (PTT), optoacoustic imaging, and cancer immunotherapy. One of the approaches before using these fluorophores in those applications is to study their biodistribution and clearance pattern in vivo. […] The power density of 150 W is much higher than the required power for fluorescence imaging, considering that the time it takes for a fluorophore to clear from the background and accumulate in sufficient quantities in the targeted tissues is unknown. […] By considering this, an aliquot of the stock solution (1 mM in DMSO) was diluted in ethanol, and the fluorescence intensity was measured at the excitation wavelength same as their absorption maxima (nm). Photodegradation rates were measured every 20 min intervals for the selected fluorophores based on the % reduced fluorescence intensity starting from 100%. […] The data were collected in every 20 min intervals under continuous irradiation with a xenon lamp at 150 W for 2 h and presented based on the % reduced fluorescence intensity starting from 100%. […]

The nature of data set [4]: Serum protein binding kinetics (size exclusion column). It is filed as in vitro ADME. To be noted: bovine, FBS/PBS 50/50 v/v % (serum proteins, mostly albumin), pH 7.4; within 30 min, FBS/PBS 50/50, 37° C. On the procedure:
FIG. 15 Reaction kinetics of SH1, ICG, and IR-780 to serum proteins, mostly albumin. 50 nmol of each dye was mixed with 1 ml of FBS/PBS (pH 7.4) 50/50 v/v %, incubated at 37° C., and analyzed using a BioResolve size exclusion column (200 Å, 2.5 μm, 7.8×300 mm). The binding percentage was calculated by dividing by absorbance of bound dye at 24 h assuming the dyes can bind in maximum capacity in the protein at 24 h.

As to `CCCCN1/C(=C/C=C2\CCCC(/C=C/C3=[N+](CCCC)c4ccc(Cl)cc4C3(C)C)=C2Cl)C(C)(C)c2cc(Cl)ccc21` [SH1, 1-butyl-2-((E)-2-((E)-3-(2-((E)-1-butyl-5-chloro-3,3-dimethylindolin-2-ylidene)ethylidene)-2-chlorocyclohex-1-en-1-yl)vinyl)-5-chloro-3,3-dimethyl-3H-indol-1-ium], in data set [1] (5% BSA saline), the “NIR-II tail emission up to” value is reported as roughly 1250 nm, the extinction coefficient is given as 333,600 M^−1 cm^−1 and the “fluorescence emission maximum (NIR-I)” value is given as 820 nm. The quantum yield in data set [1] (5 w/v % BSA saline) was 11%. In addition, in data set [1] (808 nm excitation, 1,070 nm LP), the “brightness in the NIR-II region relative to ICG” value amounted to 2.2 fold and the “brightness in the NIR-II region relative to IR-780” value is recorded as 1.7 fold. Besides, in data set [1] (NIR-II region), the “fluorescence brightness in the NIR-II region compared with ICG” value was 225%. Further, in data set [2] (1 μmol/kg intravenous), the pharmacokinetic model result is “one-compartment model” and the “time to complete distribution” value is recorded as no more than 24 h. Further, in data set [2] (24 h post-injection), the organ distribution entry is “major distribution in the liver and spleen”. Moreover, the half-life – broadly, the time in which the quantity being followed falls by half – in data set [2] (male, CD-1, mouse, whole blood, 1 umol/kg, 1 μmol/kg intravenous, read-out: elimination blood half-life t½ (converted)) was 5.39 ± 1.53 h. Further, the “photodegradation (% reduced fluorescence intensity)” value in data set [3] is “I-4”. In addition, the unbound share (fraction unbound) (usually the share of the substance not bound to proteins or other matrix) at 30 min, 50 μM in data set [4] was roughly 0.65.

These data come from patent US20260166182A1, “CYANINE-BASED FLUOROPHORES” (The General Hospital Corporation, priority 2022, published 2026).
